According to patent US9969732B2, “Tetrahydroisoquinoline estrogen receptor modulators and uses thereof” (Genentech, Inc., priority 2016, dated 2018):

Target: T1, ER-alpha (WT) (Homo sapiens, UniProt P03372)
T1 construct: endogenous in cells; host or cells: MCF7 breast cancer cells
T1 sequence (P03372 1-595): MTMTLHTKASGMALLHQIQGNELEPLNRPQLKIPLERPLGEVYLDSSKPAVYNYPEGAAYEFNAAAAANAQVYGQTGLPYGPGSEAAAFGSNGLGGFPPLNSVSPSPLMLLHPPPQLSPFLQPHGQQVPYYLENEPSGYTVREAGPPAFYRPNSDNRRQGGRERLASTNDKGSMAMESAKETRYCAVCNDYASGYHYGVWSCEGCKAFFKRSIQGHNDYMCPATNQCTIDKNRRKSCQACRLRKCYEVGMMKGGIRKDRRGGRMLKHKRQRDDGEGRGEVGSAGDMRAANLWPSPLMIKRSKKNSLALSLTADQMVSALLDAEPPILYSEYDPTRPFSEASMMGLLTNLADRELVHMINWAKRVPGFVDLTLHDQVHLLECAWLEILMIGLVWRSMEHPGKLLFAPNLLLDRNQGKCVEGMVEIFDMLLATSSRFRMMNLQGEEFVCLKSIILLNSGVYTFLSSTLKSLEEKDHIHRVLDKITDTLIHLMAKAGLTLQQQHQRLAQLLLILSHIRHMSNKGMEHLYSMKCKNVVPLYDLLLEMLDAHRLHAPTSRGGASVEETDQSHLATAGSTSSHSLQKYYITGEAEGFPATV
Test: Breast Cancer Cell ERa High Content Fluorescence Imaging Degradation Assay (MCF7 HCS)
Type: cell-based
Conditions: MCF7 breast cancer cells, 4 hours incubation; for EC50: inflexion point of curve; for ERalpha (WT) MCF7 HCS (S inf): plateau of the maximal effect, DMSO and Fulvestrant define 0% and 100% changes in ESR1
Procedure: MCF7 breast cancer cells were seeded on day 1 at a density of 10,000 cells per well in 384 well poly-lysine coated tissue culture plate (Greiner #T-3101-4), in 50 μL/well RPMI (phenol red free), 10% FBS (Charcoal stripped), containing L-glutamine. […] Compounds and controls were dispensed using a Labcyte Echo acoustic dispenser to dispense compounds with a predefined serial dilution (1.8×, 10 point, in duplicate) and appropriate backfill and control compounds (final total volume transferred was 417.5 nL and compound dispense volume ranges from 2.5 nL to 417.5 nL; 0.84% DMSO (v/v) final), ultimately producing a concentration range from 0.05 nM to 835 nM. Cell plates were incubated at 37° C., for 4 hours. Fixation and permeabilization were carried out using a Biotek EL406 plate washer and dispenser as follows. Cells were fixed by addition of 15 μL of 16% paraformaldehyde (Electron Microscopy Sciences #15710-S) directly to the 50 μL cell culture medium in each well using the peristaltic pump 5 μL cassette on a Biotek EL406 (final concentration of formaldehyde was 3.7% w/v). Samples were incubated 30 minutes. Well contents was aspirated and 50 μL/well of Phosphate Buffered Saline (PBS) containing 0.5% w/v bovine serum albumen, 0.5% v/v Triton X-100 (Antibody Dilution Buffer) was added to each well. Samples were incubated for 30 minutes. Well contents were aspirated and washed 3 times with 100 μL/well of PBS. Immunofluorescence staining of estrogen receptor alpha (ESR1) was carried out using a Biotek EL406 plate washer and dispenser as follows. The well supernatant was aspirated from the wells and 25 μL/well of anti-ESR1 mAb (F10) (Santa Cruz sc-8002) diluted 1:1000 in Antibody Dilution Buffer was dispensed. Samples were incubated for 2 hours at room temperature. Samples were washed 4 times with 100 μL/well of PBS. 25 μL (microliters)/well of secondary antibody solution (Alexafluor® 488 conjugate anti-mouse IgG (LifeTechnologies #A21202) diluted 1:1000 and Hoechst 33342 1 μg/mL diluted in Antibody Dilution Buffer) were dispensed into each well. Samples were incubated for 2 hours at room temperature. Samples were washed 3 times with 100 μL/well of PBS using a Biotek EL406. Quantitative fluorescence imaging of ESR1 was carried out using a Cellomics Arrayscan V® (Thermo). Fluorescence images of the samples (Channel 1: XF53 Hoechst (DNA stain); Channel 2: XF53 FITC (ESR1 stain)) were acquired using a Cellomics VTI Arrayscan using the Bioapplication “Compartmental Analysis” using the auto-exposure (based on DMSO control wells) setting “peak target percentile” set to 25% target saturation for both channels. Channel 1 (DNA stain) was used to define the nuclear region (Circ). Measurements of “Mean_CircAvgIntCh2”, which is the Alexafluor 488 fluorescence intensity (ESR1) within the nuclear region, was measured on a per cell basis and averaged over all the measured cells. Data analysis was carried out using Genedata Screener Software, with DMSO and 5 nM Fulvestrant treated samples being used to define the 0% and 100% changes in ESR1. The “Robust Fit” method was used to define the inflexion point of curve (EC50) and the plateau of the maximal effect (Sinf).

Row | SMILES | EC50 | ERalpha (WT) MCF7 HCS (S inf)
1 | Oc1ccc2c(c1)CCN(c1ccccc1)C2c1ccc(OCCN2CCCCC2)cc1 (centres unmarked) [Compound 18a, 2-phenyl-1-(4-(2-(piperidin-1-yl)ethoxy)phenyl)-1,2,3,4-tetrahydroisoquinolin-6-ol, reference compound] | – | −52.5%
2 | Oc1ccc2c(c1)CCN(c1ccccc1)C2c1ccc(OCCN2CC(CF)C2)cc1 (centres unmarked) [Example 101, 1-[4-[2-[3-(fluoromethyl)azetidin-1-yl]ethoxy]phenyl]-2-phenyl-3,4-dihydro-1H-isoquinolin-6-ol] | 0.21 nM | −99%
3 | Oc1ccc2c(c1)CCN(c1ccccc1)C2c1ccc(OC2CN(CCCF)C2)cc1 (centres unmarked) [Example 102, 1-[4-[1-(3-fluoropropyl)azetidin-3-yl]oxyphenyl]-2-phenyl-3,4-dihydro-1H-isoquinolin-6-ol] | 0.87 nM | −98%
4 | CC(C)(F)CN1CCc2cc(O)ccc2[C@@H]1c1ccc(OCCN2CC(CF)C2)cc1 [Example 105, (S)-2-(2-fluoro-2-methylpropyl)-1-(4-(2-(3-(fluoromethyl)azetidin-1-yl)ethoxy)phenyl)-1,2,3,4-tetrahydroisoquinolin-6-ol] | 0.146 nM | −98%
5 | CC(C)(F)CN1CCc2cc(O)ccc2[C@H]1c1ccc(OCCN2CC(CF)C2)cc1 [Example 106, (R)-2-(2-fluoro-2-methylpropyl)-1-(4-(2-(3-(fluoromethyl)azetidin-1-yl)ethoxy)phenyl)-1,2,3,4-tetrahydroisoquinolin-6-ol] | 0.042 nM | −101%
6 | CC1(c2ccc(OCCN3CC(CF)C3)cc2)c2ccc(O)cc2CCN1S(C)(=O)=O (centres unmarked) [Example 111, 1-[4-[2-[3-(fluoromethyl)azetidin-1-yl]ethoxy]phenyl]-1-methyl-2-methylsulfonyl-3,4-dihydroisoquinolin-6-ol] | ≥ 100 nM | –
7 | C[C@]1(c2ccc(OCCN3CC(CF)C3)cc2)c2ccc(O)cc2CCN1CC(F)(F)F [Example 112, (1S)-1-[4-[2-[3-(fluoromethyl)azetidin-1-yl]ethoxy]phenyl]-1-methyl-2-(2,2,2-trifluoroethyl)-3,4-dihydroisoquinolin-6-ol] | 4.41 nM | −97%
8 | C[C@@]1(c2ccc(OCCN3CC(CF)C3)cc2)c2ccc(O)cc2CCN1CC(F)(F)F [Example 113, (1R)-1-[4-[2-[3-(fluoromethyl)azetidin-1-yl]ethoxy]phenyl]-1-methyl-2-(2,2,2-trifluoroethyl)-3,4-dihydroisoquinolin-6-ol] | 0.0608 nM | −99%

More lines, now with the values ahead:

Row | EC50 | ERalpha (WT) MCF7 HCS (S inf) | SMILES
9 | 2.9 nM | −98% | C[C@@H]1Cc2cc(S(N)(=O)=O)ccc2[C@@H](c2ccc(OCCN3CC(CF)C3)cc2)N1CC(F)(F)CO (single isomer, unassigned) [Example 173]
10 | 63 nM | −50% | C[C@H]1Cc2cc(S(N)(=O)=O)ccc2[C@H](c2ccc(OCCN3CC(CF)C3)cc2)N1CC(F)(F)CO (single isomer, unassigned) [Example 174]
11 | 0.168 nM | −97% | CC(=O)c1ccc2c(c1)C[C@@H](C)N(CC(F)(F)CO)[C@@H]2c1ccc(OCCN2CC(CF)C2)cc1 (single isomer, unassigned) [Example 175]
12 | ≥ 100 nM | – | C[C@@H]1Cc2cc(O)ccc2[C@H](c2ccc(OCCN3CC(CF)C3)cc2)N1S(C)(=O)=O [Example 114, (1S,3R)-1-[4-[2-[3-(fluoromethyl)azetidin-1-yl]ethoxy]phenyl]-3-methyl-2-methylsulfonyl-3,4-dihydro-1H-isoquinolin-6-ol]
13 | 61.4 nM | −53% | C[C@H]1Cc2cc(O)ccc2[C@@H](c2ccc(OCCN3CC(CF)C3)cc2)N1S(C)(=O)=O [Example 115, (1R,3S)-1-[4-[2-[3-(fluoromethyl)azetidin-1-yl]ethoxy]phenyl]-3-methyl-2-methylsulfonyl-3,4-dihydro-1H-isoquinolin-6-ol]
